Legend:
[1] = tested on: tyrosinase; test: Tyrosinase inhibition assay; assay type: biochemical
Procedure: A tyrosinase inhibition assay was performed to determine the tyrosinase inhibition potential of an extract derived from sugar cane of the present disclosure. […]
To measure tyrosinase inhibition potential of an extract derived from sugar cane of the present disclosure, tyrosinase was added to a mixture of a test sample solution containing an extract derived from sugar cane, L-DOPA, and phosphate buffer (pH 6.8), which was then incubated at 37° C. for 5 hours. Tyrosinase activity was determined through the amount of dopachrome production in the mixture, which was measured by optical density at 450 nm. Dopachrome is a cyclization product of L-DOPA, an intermediate in the biosynthesis of melanin.

[2] = tested on: MMP-1; test: MMP-1 inhibition assay in UV irradiated human skin cells (zymography); assay type: cell-based
Procedure: The UV protection function of an extract derived from sugar cane of the present disclosure on skin using human skin cells was investigated. MMP-1, one of the key matrix metalloproteinases (MMPs) that is viewed as an indicator for tissue integrity breakdown and wrinkle formation, was used as a biomarker for skin damage. MMP-1 inhibitors have been related to skin aging prevention and therapy. An MMP-1 inhibition assay was performed to determine the MMP-1 inhibition potential of an extract derived from sugar cane of the present disclosure. […] In order to determine the UV protection ability of a test sample of an extract derived from sugar cane of the present disclosure, human skin cells were treated with (and without) the test sample followed by UV irradiation. The treated cells were then disrupted by subjection to several freeze-thaw cycles, and the proteins were obtained by centrifugation. Using the collected lysate, zymography was used to determine the enzymatic activity of secreted MMP-1. In the zymography, the proteins were separated by electrophoresis under denaturing (sodium dodecyl sulfate, SDS), nonreducing conditions. The separation occurred in a polyacrylamide gel containing a collagen substrate that was co-polymerized with the acrylamide. […] After electrophoresis, the gel was washed and subsequently incubated in an appropriate activation buffer. During this incubation, the concentrated, renatured MMPs in the gel digested the collagen substrate. After incubation, the gel was stained with Coomassie® Blue, and the MMPs were detected as clear bands against a blue background of undegraded substrate. The clear bands in the gel was quantified by densitometry. Avobenzone, a known MMP-1 inhibitor, was used as an assay control.

SMILES: O=c1cc(CO)occ1O [Kojic Acid, Kojic acid]
- Concentration inducing the maximum inhibition [1]: 1000 µM
- Inhibition (%) Result ([1]; Conc. 3.91 uM): −11.66%
- Inhibition (%) Result ([1]; Conc. 7.81 uM): −9.33%
- Inhibition (%) Result ([1]; Conc. 15.63 uM): −4.66%
- Inhibition (%) Result ([1]; Conc. 31.25 uM): 1.23%
- Inhibition (%) Result ([1]; Conc. 62.50 uM): 12.35%
- Inhibition (%) Result ([1]; Conc. 125.00 uM): 30.45%
- Inhibition (%) Result ([1]; Conc. 250.00 uM): 52.40%
- Inhibition (%) Result ([1]; Conc. 500.00 uM): 75.45%
- Inhibition (%) Result ([1]; Conc. 1000.00 uM): 90.12%
- Maximum inhibition achieved ([1]; at 1000 μM): 90.12%

SMILES: COc1ccc(C(=O)CC(=O)c2ccc(C(C)(C)C)cc2)cc1 [avobenzone, Avobenzone]
- Concentration inducing the maximum inhibition [2]: 10%
- MMP-1 inhibition (%) Average ([2]; Conc 0.31 %): 5.0%
- MMP-1 inhibition (%) Replicate 2 ([2]; Conc 0.31 %): 5.0%
- MMP-1 inhibition (%) Average ([2]; Conc 0.63 %): 44.1%
- MMP-1 inhibition (%) Replicate 1 ([2]; Conc 0.63 %): 22.51%
- MMP-1 inhibition (%) Replicate 2 ([2]; Conc 0.63 %): 65.72%
- MMP-1 inhibition (%) Average ([2]; Conc 1.25 %): 48.5%
- MMP-1 inhibition (%) Replicate 1 ([2]; Conc 1.25 %): 56.96%
- MMP-1 inhibition (%) Replicate 2 ([2]; Conc 1.25 %): 39.99%
- MMP-1 inhibition (%) Average ([2]; Conc 2.50 %): 79.8%
- MMP-1 inhibition (%) Replicate 1 ([2]; Conc 2.50 %): 77.44%
- MMP-1 inhibition (%) Replicate 2 ([2]; Conc 2.50 %): 82.22%
- MMP-1 inhibition (%) Average ([2]; Conc 5.00 %): 90.7%
- MMP-1 inhibition (%) Replicate 1 ([2]; Conc 5.00 %): 85.34%
- MMP-1 inhibition (%) Replicate 2 ([2]; Conc 5.00 %): 96.03%
- MMP-1 inhibition (%) Average ([2]; Conc 10.00 %): 97.5%
- MMP-1 inhibition (%) Replicate 1 ([2]; Conc 10.00 %): 95.44%
- MMP-1 inhibition (%) Replicate 2 ([2]; Conc 10.00 %): 99.52%
- Maximum inhibition achieved ([2]; at 10%): 97.50%
- EC50 ([2]; effective concentration at 50% of maximal inhibition): 1.22%
